Three compounds from EP0908457B1, “3-(1,2-benzisothiazol- and isoxazol-5-Y1)-2,4(1H,3H)-pyrimidinedione or thione and 3-(1,2-benzisothiazol- and isoxazol-5-y1)-4(3H)-pyrimidinone or thione herbicidal agents” (BASF AKTIENGESELLSCHAFT, priority 1997, dated 1999) can be followed below.

Data set [1] has as its system Echinochloa oryzoides (Ard.) Fritsch. As to the kind of experiment: Preemergence weed control under flooded paddy conditions, ECHORC (Watergrass (Calif.)). It is filed as in vivo. Particulars: preemergence, flooded paddy, rated three to four weeks after treatment.
A further data set concerns Cyperus iria. Put plainly: Preemergence weed control under flooded paddy conditions, CYPIR (Rice Flatsedge). In kind it is in vivo. Particulars: preemergence, flooded paddy, rated three to four weeks after treatment.
Data set [2] has as its system Cyperus serotinus, Rottb. Put plainly: Preemergence weed control under flooded paddy conditions, CYPSE (Flatsedge). The note with it: preemergence, rated three to four weeks after treatment. It is filed as in vivo.
Data set [3] relates to Monochoria vaginalis, Presl. As to the kind of experiment: Preemergence weed control under flooded paddy conditions, MOOVA (Monochoria). In kind it is in vivo. Particulars: preemergence, flooded paddy, rated three to four weeks after treatment.
The subject of another data set is Sagittaria pygmaea, L. As to the kind of experiment: Preemergence weed control under flooded paddy conditions, SAGPY (Arrowhead (Pygmaea)). It is filed as in vivo. The note with it: preemergence, flooded paddy, rated three to four weeks after treatment.
In data set [4] the test system is Oryza sativa, (L.) Tebonnet. As to the kind of experiment: Rice tolerance to post-transplant applications under flooded paddy conditions (Example 187), ORYSAT (Rice, Tebonnet). The note with it: rated three to four weeks after treatment.

For the compound `COCOCc1nsc2ccc(-n3c(=O)cc(C(F)(F)F)n(C)c3=O)cc12` [Example 478, 2,4(1H,3H)-Pyrimidinedione, 3-{3-[(methoxymethoxy)methyl]-1,2-benzisothiazol-5-yl}-1-methyl-6-(trifluoromethyl)-], the ECHORC herbicidal rating in data set [1] (0.0320 kg/ha) is reported as 4.0; in data set [1] (0.0620 kg/ha), 6.0; in data set [1] (0.1250 kg/ha), 7.0; in data set [1] (0.2500 kg/ha), 9.0. Also, the CYPIR herbicidal rating came to 4.0 in the data set with Cyperus iria (0.0320 kg/ha), 9.0 in the data set with Cyperus iria (0.0620 kg/ha), 9.0 in the data set on Cyperus iria (0.1250 kg/ha) and 9.0 in the data set on Cyperus iria (0.2500 kg/ha). Further, the CYPSE herbicidal rating is recorded as 6.0 in data set [2] (0.0320 kg/ha), 7.0 in data set [2] (0.0620 kg/ha), 9.0 in data set [2] (0.1250 kg/ha) and 9.0 in data set [2] (0.2500 kg/ha). The MOOVA herbicidal rating in data set [3] (0.0320 kg/ha) is given as 7.0; in data set [3] (0.0620 kg/ha), 9.0; in data set [3] (0.1250 kg/ha), 9.0; in data set [3] (0.2500 kg/ha) it was 9.0. In addition, the SAGPY herbicidal rating with Sagittaria pygmaea, L. (0.0320 kg/ha) amounted to 6.0; with Sagittaria pygmaea, L. (0.0620 kg/ha) it was 6.0; with Sagittaria pygmaea, L. (0.1250 kg/ha) it was 9.0; with Sagittaria pygmaea, L. (0.2500 kg/ha), 9.0. Besides, the “ORYSAT herbicidal rating (rice tolerance)” value in data set [4] (0.0320 kg/ha) stood at 7.0; in data set [4] (0.0620 kg/ha), 9.0; in data set [4] (0.1250 kg/ha), 9.0; in data set [4] (0.2500 kg/ha), 9.0.
With `COP(=O)(Cc1nsc2ccc(-n3c(=O)cc(C(F)(F)F)n(C)c3=O)cc12)OC` [Example 262, 1,2-Benzisothiazole-3-methanephosphonic acid, 5-[3,6-dihydro-3-methyl-2,6-dioxo-4-(trifluoromethyl)-1(2H)-pyrimidinyl]-, dimethyl ester], the entries for the “ECHORC herbicidal effect rating” value in data set [1] (Rate 0.0620 kg/ha), in data set [1] (Rate 0.1250 kg/ha) and in data set [1] (Rate 0.2500 kg/ha) were 0.0, 0.0 and 3.0, respectively. Further, the “CYPIR herbicidal effect rating” value in the data set on Cyperus iria (Rate 0.0620 kg/ha) stood at 0.0; in the data set on Cyperus iria (Rate 0.1250 kg/ha) it was 6.0; in the data set on Cyperus iria (Rate 0.2500 kg/ha), 9.0. In addition, the “CYPSE herbicidal effect rating” value in data set [2] (Rate 0.0620 kg/ha), in data set [2] (Rate 0.1250 kg/ha) and in data set [2] (Rate 0.2500 kg/ha) was 0.0 each time. The “MOOVA herbicidal effect rating” value in data set [3] (Rate 0.0620 kg/ha) is recorded as 0.0; in data set [3] (Rate 0.1250 kg/ha) it was 9.0; in data set [3] (Rate 0.2500 kg/ha), 9.0. Moreover, the “SAGPY herbicidal effect rating” value in the data set on Sagittaria pygmaea, L. (Rate 0.0620 kg/ha) was found to be 0.0; in the data set with Sagittaria pygmaea, L. (Rate 0.1250 kg/ha) it was 0.0; in the data set with Sagittaria pygmaea, L. (Rate 0.2500 kg/ha), 0.0. Further, the “ORYSAT herbicidal effect rating” value in data set [4] (Rate 0.0620 kg/ha) stood at 0.0; in data set [4] (Rate 0.1250 kg/ha), 0.0; in data set [4] (Rate 0.2500 kg/ha), 3.0.
Regarding `CSCOCc1nsc2ccc(-n3c(=O)cc(C(F)(F)F)n(C)c3=O)cc12` [Example 484, 2,4(1H,3H)-Pyrimidinedione, 1-methyl-3-{3-{[(methylthio)methoxy]methyl}-1,2-benzisothiazol-5-yl}-6-(trifluoromethyl)-], the ECHORC herbicidal rating in data set [1] (0.0320 kg/ha) is listed as 5.0; in data set [1] (0.0620 kg/ha), 4.0; in data set [1] (0.1250 kg/ha), 7.0; in data set [1] (0.2500 kg/ha), 9.0. Also, the CYPIR herbicidal rating in the data set with Cyperus iria (0.0320 kg/ha) is reported as 4.0; in the data set with Cyperus iria (0.0620 kg/ha), 4.0; in the data set on Cyperus iria (0.1250 kg/ha) it was 6.0; in the data set with Cyperus iria (0.2500 kg/ha), 9.0. Further, in data set [2] (0.0320 kg/ha), the CYPSE herbicidal rating amounted to 0.0. For the same compound, the MOOVA herbicidal rating was determined as 7.0 in data set [3] (0.0320 kg/ha), 9.0 in data set [3] (0.0620 kg/ha), 9.0 in data set [3] (0.1250 kg/ha) and 9.0 in data set [3] (0.2500 kg/ha). Also, in the data set on Sagittaria pygmaea, L. (0.0320 kg/ha), the SAGPY herbicidal rating is given as 5.0. Also, the “ORYSAT herbicidal rating (rice tolerance)” value in data set [4] (0.0320 kg/ha) was found to be 5.0; in data set [4] (0.0620 kg/ha) it was 5.0; in data set [4] (0.1250 kg/ha), 6.0; in data set [4] (0.2500 kg/ha), 6.0.
